This assay concerns the target human PDE10A2 (Homo sapiens (Human), UniProt Q9Y233). Briefly: PDE10 fluorescence polarization (IMAP FP) inhibition assay. It is filed as biochemical. To be noted: human PDE10A2 from transfected AD293 cells; FAM-labeled cAMP 50 nM; apparent inhibition constant; read-out: PDE10A Ki. In short, it runs like this:
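Cytoplasmic lysate of AD293 cells transiently expressing human PDE10A2 (enzyme level giving 20% conversion) incubated with 50 nM FAM-cAMP in pH 7.2 Tris/MgCl2 buffer, 30 min at room temperature. IMAP binding solution added, FP read after ≥1 h; 10-point 3-fold compound titrations fitted to a four-parameter equation.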
For orientation: Fluorescence polarisation rises when a labelled molecule tumbles more slowly, as on binding a larger partner.

Chain of human PDE10A2 (Q9Y233 267-1055): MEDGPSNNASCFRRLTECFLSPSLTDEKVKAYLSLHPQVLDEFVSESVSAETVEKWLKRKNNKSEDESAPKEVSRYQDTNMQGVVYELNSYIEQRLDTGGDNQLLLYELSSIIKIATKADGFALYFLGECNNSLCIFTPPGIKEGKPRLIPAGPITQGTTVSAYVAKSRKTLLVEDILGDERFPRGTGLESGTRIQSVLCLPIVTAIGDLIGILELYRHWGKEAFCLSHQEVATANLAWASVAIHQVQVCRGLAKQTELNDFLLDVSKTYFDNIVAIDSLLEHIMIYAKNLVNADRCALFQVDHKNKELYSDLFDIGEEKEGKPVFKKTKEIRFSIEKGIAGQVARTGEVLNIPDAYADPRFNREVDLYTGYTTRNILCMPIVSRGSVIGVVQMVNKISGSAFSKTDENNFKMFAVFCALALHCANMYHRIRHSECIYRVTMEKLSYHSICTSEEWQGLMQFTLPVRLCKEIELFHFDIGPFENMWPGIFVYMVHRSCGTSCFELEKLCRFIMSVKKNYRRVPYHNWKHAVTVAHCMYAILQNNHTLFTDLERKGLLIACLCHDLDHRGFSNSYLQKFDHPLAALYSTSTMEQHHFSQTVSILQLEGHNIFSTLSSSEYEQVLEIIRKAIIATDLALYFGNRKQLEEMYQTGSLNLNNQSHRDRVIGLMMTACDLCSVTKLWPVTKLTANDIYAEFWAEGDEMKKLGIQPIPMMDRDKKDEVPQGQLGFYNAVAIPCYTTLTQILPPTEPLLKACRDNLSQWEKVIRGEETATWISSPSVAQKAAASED

For `Cc1ccc([C@H]2C[C@@H]2COc2nc(C)ncc2-c2ccc(C(C)O)nc2)nc1` (stereo partly drawn) [Example 141, 1-(5-(2-methyl-4-(((1S,2S)-2-(5-methylpyridin-2-yl)cyclopropyl)methoxy)pyrimidin-5-yl)pyridin-2-yl)ethanol], the Ki is 0.24 nM. In the case of `Cc1ccc([C@H]2C[C@@H]2COc2nc(C)ncc2-c2cnc3[nH]ncc3c2)nc1` [Example 142, 5-(2-methyl-4-(((1S,2S)-2-(5-methylpyridin-2-yl)cyclopropyl)methoxy)pyrimidin-5-yl)-1H-pyrazolo[3,4-b]pyridine] it was 0.37 nM; in that of `CCC(O)c1ccc(-c2cnc(C)nc2OC[C@H]2C[C@@H]2c2ccc(C)cn2)cn1` (stereo partly drawn) [Example 143, 1-(5-(2-methyl-4-(((1S,2S)-2-(5-methylpyridin-2-yl)cyclopropyl)methoxy)pyrimidin-5-yl)pyridin-2-yl)propan-1-ol], 0.16 nM.

Regarding `CCC(O)c1ccc(-c2cnc(C)nc2OC[C@H]2C[C@@H]2c2ccc(C)cn2)cn1` (stereo partly drawn) [Example 144, 1-(5-(2-methyl-4-(((1S,2S)-2-(5-methylpyridin-2-yl)cyclopropyl)methoxy)pyrimidin-5-yl)pyridin-2-yl)propan-1-ol], the Ki is 0.73 nM. As for `Cc1ccc([C@H]2C[C@@H]2COc2nc(C)ncc2-c2ccc(C(O)C(F)(F)F)nc2)nc1` (stereo partly drawn) [Example 145, 2,2,2-trifluoro-1-(5-(2-methyl-4-(((1S,2S)-2-(5-methylpyridin-2-yl)cyclopropyl)methoxy)pyrimidin-5-yl)pyridin-2-yl)ethanol], the Ki came to 0.54 nM. With `Cc1ccc([C@H]2C[C@@H]2COc2nc(C)ncc2-c2ccc(C(O)C(F)(F)F)nc2)nc1` (stereo partly drawn) [Example 146] the figure was 0.25 nM; with `Cc1ccc([C@H]2C[C@@H]2COc2nc(C)ncc2-c2ccncc2C)nc1` [Example 147, 2-methyl-4-(((1S,2S)-2-(5-methylpyridin-2-yl)cyclopropyl)methoxy)-5-(3-methylpyridin-4-yl)pyrimidine], 0.4 nM.

As for `Cc1ccc([C@H]2C[C@@H]2COc2nc(C)ncc2-c2ccc(C(C)O)nc2)nc1` (stereo partly drawn) [Example 148, 1-(5-(2-methyl-4-(((1S,2S)-2-(5-methylpyridin-2-yl)cyclopropyl)methoxy)pyrimidin-5-yl)pyridin-2-yl)ethanol], the Ki was determined as 0.98 nM. In the case of `Cc1ccc([C@H]2C[C@@H]2COc2nc(C)ncc2-c2ccc(C(C)O)nc2)nc1` (stereo partly drawn) [Example 149, 1-(5-(2-methyl-4-(((1S,2S)-2-(5-methylpyridin-2-yl)cyclopropyl)methoxy)pyrimidin-5-yl)pyridin-2-yl)ethanol] it was 0.14 nM; in that of `COc1cnccc1-c1cnc(C)nc1OC[C@H]1C[C@@H]1c1ccc(C)cn1` [Example 150, 5-(3-methoxypyridin-4-yl)-2-methyl-4-(((1S,2S)-2-(5-methylpyridin-2-yl)cyclopropyl)methoxy)pyrimidine], 0.47 nM.

Turning to `Cc1cc(-c2cnc(C)nc2OC[C@H]2C[C@@H]2c2ccc3ccccc3n2)ccn1` [Example 153, 2-((1S,2S)-2-((2-methyl-5-(2-methylpyridin-4-yl)pyrimidin-4-yloxy)methyl)cyclopropyl)quinoline], the Ki came out at 0.01 nM. With `Cc1ncc(-c2ccc(CO)nc2)c(OC[C@H]2C[C@@H]2c2ccc3ccccc3n2)n1` [Example 154, (5-(2-methyl-4-(((1S,2S)-2-(quinolin-2-yl)cyclopropyl)methoxy)pyrimidin-5-yl)pyridin-2-yl)methanol] the figure was 0.01 nM; with `Cc1ncc(-c2cccnc2)c(OC[C@H]2C[C@@H]2c2ccc3ccccc3n2)n1` [Example 155, 2-((1S,2S)-2-((2-methyl-5-(pyridin-3-yl)pyrimidin-4-yloxy)methyl)cyclopropyl)quinoline], 0.01 nM.

For `Cc1ncc(-c2ccc(C(F)(F)F)nc2)c(OC[C@H]2C[C@@H]2c2ccc3ccccc3n2)n1` [Example 156, 2-((1S,2S)-2-((2-methyl-5-(6-(trifluoromethyl)pyridin-3-yl)pyrimidin-4-yloxy)methyl)cyclopropyl)quinoline], the Ki is 0.12 nM. In the case of `Cc1ncc(-c2ccc(C(C)(C)O)nc2)c(OC[C@H]2C[C@@H]2c2ccc3ccccc3n2)n1` [Example 157, 2-(5-(2-methyl-4-(((1S,2S)-2-(quinolin-2-yl)cyclopropyl)methoxy)pyrimidin-5-yl)pyridin-2-yl)propan-2-ol], the Ki amounted to 0.02 nM. With `Cc1cccc([C@H]2C[C@@H]2COc2nc(C)ncc2-c2cn(C)nc2C(C)O)n1` (stereo partly drawn) [Example 158, 1-(1-methyl-4-(2-methyl-4-(((1S,2S)-2-(6-methylpyridin-2-yl)cyclopropyl)methoxy)pyrimidin-5-yl)-1H-pyrazol-3-yl)ethanol] the figure was 0.56 nM. In the case of `Cc1ccnc([C@H]2C[C@@H]2COc2nc(C)ncc2-c2cn(C)nc2C(C)O)c1` (stereo partly drawn) [Example 159, 1-(1-methyl-4-(2-methyl-4-(((1S,2S)-2-(4-methylpyridin-2-yl)cyclopropyl)methoxy)pyrimidin-5-yl)-1H-pyrazol-3-yl)ethanol] it was 1.47 nM; in that of `Cc1ccnc([C@H]2C[C@@H]2COc2nc(C)ncc2-c2cn(C)nc2C(C)O)c1` (stereo partly drawn) [Example 160, 1-(1-methyl-4-(2-methyl-4-(((1S,2S)-2-(4-methylpyridin-2-yl)cyclopropyl)methoxy)pyrimidin-5-yl)-1H-pyrazol-3-yl)ethanol], 2.92 nM; in that of `Cc1cccc([C@H]2C[C@@H]2COc2nc(C)ncc2-c2cn(C)nc2C(C)O)n1` (stereo partly drawn) [Example 161, 1-(1-methyl-4-(2-methyl-4-(((1S,2S)-2-(6-methylpyridin-2-yl)cyclopropyl)methoxy)pyrimidin-5-yl)-1H-pyrazol-3-yl)ethanol], 2.28 nM. With `CCc1ccc([C@H]2C[C@@H]2COc2nc(C)ncc2-c2cn(C)nc2C(C)O)nc1` (stereo partly drawn) [Example 162, 1-(4-(4-(((1S,2S)-2-(5-ethylpyridin-2-yl)cyclopropyl)methoxy)-2-methylpyrimidin-5-yl)-1-methyl-1H-pyrazol-3-yl)ethanol] the figure was 0.13 nM; with `CCc1ccc([C@H]2C[C@@H]2COc2nc(C)ncc2-c2cn(C)nc2C(C)O)nc1` (stereo partly drawn) [Example 163, 1-(4-(4-(((1S,2S)-2-(5-ethylpyridin-2-yl)cyclopropyl)methoxy)-2-methylpyrimidin-5-yl)-1-methyl-1H-pyrazol-3-yl)ethanol], 0.24 nM; with `Cc1ccc([C@H]2C[C@@H]2COc2nc(C)ncc2-c2cn(C)nc2C(O)C(F)F)nc1` (stereo partly drawn) [Example 170, 2,2-difluoro-1-(1-methyl-4-(2-methyl-4-(((1S,2S)-2-(5-methylpyridin-2-yl)cyclopropyl)methoxy)pyrimidin-5-yl)-1H-pyrazol-3-yl)ethanol], 1.48 nM. Regarding `COc1ccc([C@H]2C[C@@H]2COc2nc(C)ncc2-c2ccc(C#N)cc2)nc1` [Example 171, 4-(4-(((1S,2S)-2-(5-methoxypyridin-2-yl)cyclopropyl)methoxy)-2-methylpyrimidin-5-yl)benzonitrile], the Ki was found to be 1.19 nM.

On to `COc1ccc([C@H]2C[C@@H]2COc2nc(C)ncc2-c2ccc(C(=O)O)cc2)nc1` [Example 172, 4-(4-(((1S,2S)-2-(5-methoxypyridin-2-yl)cyclopropyl)methoxy)-2-methylpyrimidin-5-yl)benzoic acid], for which the Ki stood at 0.29 nM.
